Reference: US20060167298A1, “Sulfated diglyceride derivatives, salts thereof, and processes for their preparation” (priority 2005, published 2006)
Values belong to the molecule of their own block, whether it stands above or below them.

Tests used:
[1] = Surface tension of aqueous solution at 25° C.; type: physicochemical
[2] = Foam test: solution shaken in a graduated cylinder; type: physicochemical
Procedure: Dioctanoyl glyceride (6.88 grams; 0.02 mole), sulfamic acid (2.14 gram; 0.022 mole) and ammonium sulfamate (0.34 gram; 0.00298 mole) were heated with stirring at 120-125° C. for 3 hours. The reaction mixture was a somewhat viscous brown liquid. The reaction mixture was treated with water to make a 10% solution by weight, and centrifuged to recover unreacted diglyceride.

[3] = 0.1% by weight aqueous solution of the reaction mixture
[4] = 0.12% aqueous solution of the product in distilled water
[5] = 20 ml of the 0.1% solution shaken in a 100 ml graduated cylinder for 20 full cycles

Molecule: CCCCCC(=O)OCC(COS(=O)(=O)O)OC(=O)CCCCC.N (centres unmarked) [Example 2, Ammonium Salt of Sulfated Dihexanoyl Glyceride]
surface tension at 25° C. ([1]; 0.4% by weight aqueous solution of the reaction mixture): 31.9 mN/m

Molecule: CCCCCCCC(=O)OCC(COS(=O)(=O)O)OC(=O)CCCCCCC.N (centres unmarked) [Example 1 (sodium salt), Sulfated Dioctanoyl Glyceride]
surface tension at 25° C. [1, 3]: 26.3 mN/m

Molecule: Sodium Salt of Sulfated Dioctanoyl Glyceride [Example 5]
surface tension at 25° C. [1, 4]: 26.8 mN/m | foaming (observed) [2, 4]: foam very well

Molecule: CCCCCC(=O)OCC(COS(=O)(=O)O)OC(=O)CCCCC.N (centres unmarked) [Example 6 I, Ammonium Salt of Sulfated Dihexanoyl Glyceride]
surface tension at 25° C. ([1]; 0.42% aqueous solution of the product): 35.6 mN/m

Molecule: Sodium Salt of Sulfonated Didecanoyl Glyceride [Example 4]
surface tension at 25° C. ([1]; 0.1 g sample of reaction mixture dissolved in distilled water, neutralized to pH about 8 with NaOH): 25.9 mN/m

Molecule: CCCCCCCC(=O)OCC(COS(=O)(=O)O)OC(=O)CCCCCCC.N (centres unmarked) [Example 1 (ammonium salt), Sulfated Dioctanoyl Glyceride]
surface tension at 25° C. [1, 3]: 25.4 mN/m | foam persistence [2, 5]: one hour or more | foam produced [2, 5]: 45 mL

The remaining lines, values ahead:

surface tension at 25° C. ([1]; 0.44% aqueous solution of the reaction mixture): 36.5 mN/m
Molecule: Mixed Morpholinium, Ammonium Salt of Sulfated Dihexanoyl Glyceride [Example 3]

surface tension at 25° C. ([1]; 0.42% (by weight) solution of the reaction mixture, diluted from 10% solution (pH about 9) after centrifugation): 35.0 mN/m
Molecule: Mixed Sodium and Ammonium Salt of Sulfated Dihexanoyl Glyceride [Example 6 II]
